Reference: paper PMC9569184, “Antigenic molecular mimicry in viral-mediated protection from cancer: the HIV case” (Journal of Translational Medicine, 2022)

How the values were obtained:
HLA-A*02:01 molecule [1] = target: T1, HLA-A*02:01 molecule (Homo sapiens, UniProt P04439, D140Y/D185E/D98H/E176V/E277Q/G131W/G231S/I119V/I121R/I166T/I218V/L300P/L318F/N151K/N90K/P208A/P217A/Q86G/Q94H/R138H/R169H/T345S); assay: Peptide binding affinity assay in TAP-deficient T2 cells; format: cell-based; conditions: peptide 5, 10, 20, 50 and 100 μM, 16 h at 27°C + 2 h at 37 °C, anti HLA-A2 R-PE, flow cytometry, triplicate
T1 construct: host or cells: T2 (174xCEM.T2) human TAP-deficient cells
Experimental: Peptide binding affinity to HLA-A*02:01 molecule and BFA decay assays were performed for each candidate peptide. Human TAP-deficient T2 cell line (174xCEM.T2; ATCC CRL 1992™) was purchased from American Type Culture Collection (ATCC; https://www.atcc.org/) and cultured in Iscove's modified Dulbecco's medium (IMDM; Gibco Life Technologies) containing 25 mM HEPES and 2 mM L-Glut, supplemented with 20% fetal bovine serum (FBS; Capricorn Scientific GmbH), 100 IU/ml penicillin and 100 μg/ml streptomycin (Gibco Life Technologies). Cells were maintained at 37 °C in a humidified incubator with 5% CO2. Briefly, T2 were seeded at 3.5 × 10^5 cells per well in 24 well plates and incubated 16 h at 27°C with peptides (final concentrations: 5, 10, 20, 50 and 100 μM) in IMDM serum free medium. The next day, cells have been incubated for additional 2 h at 37 °C. Following incubation, cells were harvested and centrifuged at 200 × g for 5 min. Subsequently, cells were washed twice with phosphate buffered saline (1X PBS; Gibco Life Technologies) and stained with R-PE conjugated anti human HLA-A2 mono-clonal antibody (cat. 343,306; BioLegend), for 30 min at 4 °C, and analyzed with the Attune™ NxT flow cytometer (Thermo Fisher Scientific). […] A fluorescence index (FI) was calculated using the following formula: FI = [mean fluorescence intensity (MFI) sample – MFI background]/MFI background, where MFI background represents the value without peptide. […] Cells were harvested every two hours (T0, T2, T4, T6, T8), washed with phosphate buffered saline (1X PBS; Gibco Life Technologies), stained with anti HLA-A*0201 fluorescent monoclonal antibody (cat. 343,306; BioLegend) and analyzed by flow cytometry. The stability of each peptide bound to HLA-A*02:01 was measured as the DC50 value, which was defined as an estimate of the time required for a 50% reduction of the MFI value at time 0. The DC50 value was calculated according to the formula: MFI at indicated time points/MFI at time 0 × 100. […]

HLA-A*02:01 molecule [2] = target: T1, HLA-A*02:01 molecule; assay: BFA decay assay (peptide-MHC dissociation) in T2 cells; format: cell-based; conditions: peptide 50 μM, 1X BFA 1 h at 37°C, harvested every two hours T0-T8, flow cytometry, triplicate
Experimental: Cells were maintained at 37 °C in a humidified incubator with 5% CO2.

VIAGIVALV
binding to HLA-A*02:01 (HLA surface expression on T2 cells) (HLA-A*02:01 molecule [1]): dose-dependent increase in the HLA surface expression on T2 cells over the background

VVAGIVVLV [TAA derived from the colon ca-associated EPCAM protein]
50% dissociation value (Thalf), peptide-MHC dissociation kinetics (HLA-A*02:01 molecule [2]): 4 h | binding to HLA-A*02:01 (HLA surface expression on T2 cells) (HLA-A*02:01 molecule [1]): dose-dependent increase in the HLA surface expression on T2 cells over the background

VVAGIIALV
binding to HLA-A*02:01 (HLA surface expression on T2 cells) (HLA-A*02:01 molecule [1]): dose-dependent increase in the HLA surface expression on T2 cells over the background
